Data published in EP3807241B1, “IMPROVEMENTS IN OR RELATING TO ORGANIC COMPOUNDS” (Givaudan SA, priority 2018, dated 2019).
Read-outs that look alike come from different tables or passages of the source.

Key:
plated rat hepatocytes = format: in vitro ADME
Method: Short-term monolayer cultures of cryopreserved primary hepatocytes from rat were prepared in collagen coated 48-well plates to perform metabolic assays in a kinetic manner for up to 22 h.
Palatable primary male rat hepatocytes (Sprague-Dawley, Grade P pooled cryopreserved hepatocytes, for plated assays) and supplements were purchased from Biopredic International (Saint Grégoire, France). WEM (with Phenol Red, with GlutaMAX™, without HEPES) was purchased from Gibco™ (ThermoFisherScientific).
Cells were thawed following the supplier's protocol and seeded at a density of 450,000 cells/mL in 0.25 mL seeding medium (WEM supplemented with fetal bovine serum, Dexamethasone, penicillin-streptomycin, insulin, GlutaMAX™ and HEPES) using 48-well plates which were coated with collagen (Collagen I Rat Protein, Tail; Gibco™, ThermoFisherScientific) and incubated for 4-5 h to facilitate attachment. Then, the medium was changed to culturing medium (WEM supplemented with penicillin, streptomycin, insulin, hydrocortisone without serum) to prevent detachment of cells.
Test chemicals were dissolved in methanol (80-90% methanol) and directly added with the culture medium (0.8-0.9% final methanol concentration). For structure-activity studies, final concentration of test chemicals was 50 µM or 5 µM. Cells were incubated for 0.5-22 h in the presence of test chemicals. To stop the reactions, the culture medium was removed and 0.5 M citric acid (pH 2.0; 60 µL) and cold acetonitrile (60 µL) containing 2 µM decanoyl CoA as internal standard were added to each well. The attached cells were removed and disrupted by scraping the well with a pipette tip and by pipetting up and down several times, transferred in 1.5 mL tubes and frozen at -80°C. The cell lysates were defrozen, centrifuged (21,000 x g, 5 min, RT), and the supernatant was diluted with 1.36 mL Tris-buffer (4 mM) containing KCI (6 mM), MgCl2 (0.3 mM) and n-heptadecanoyl CoA as internal standard (0.2 µM). Samples were neutralized by addition of NaOH (42 µL of 1 M NaOH) and loaded onto solid phase extraction cartridges (OASIS HLB µEIution plate, Waters). Columns were washed with 200 µL of ammonium solution (1 M), and samples eluted sequentially with 50 µL acetonitrile and 50 µL water.
CoA conjugates were analyzed with high resolution LC-MS (LC-HRMS) on a Dionex UltiMate 3000 RS HPLC system coupled to a Q-Exactive orbitrap mass spectrometer (Thermo Scientific, Reinach, Switzerland) with electrospray ionization (ESI) in both positive and negative ionization mode. For liquid chromatography separation an Agilent Zorbax 300Extend-C18 column with dimensions 2.1 mm x 50 mm and particle size of 3.5 µm with a 2.1 mm x 10 mm pre-column of the same material was used. The flow rate was 0.4 mL/min. Eluent A consists of water containing 0.0025% ammonia (pH around 9.8) and eluent B consists of acetonitrile containing 0.0025% ammonia. A linear gradient was run from 95% eluent A (hold for 1 min) to 100% eluent B within 6 min (hold for 1 min), back to 95% eluent A within 0.5 min followed by 1.5 min equilibration time. The injection volume of the sample was 10 µl. The mass resolution of the HR-MS spectra was set to 70,000. The mass accuracy was <5ppm. […] Ion source parameters adjusted were as follows: sheath gas flow (30 arbitrary unit), auxiliary gas flow (10 arbitrary unit), capillary temperature (270°C), and source voltage (4kV in positive mode, -3kV in negative mode). Fragmentation was obtained from dissociation in an octopole collision cell using higher energy collision dissociation settings at 35 and 45 (arbitrary unit). The mass scan range was set from 120 to 1800 m/z.
Calibration standards were prepared with CoA, acetyl-CoA, benzoyl-CoA, TBBA-CoA, and octanoyl-CoA to determine the concentrations of CoA conjugates. Decanoyl-CoA and heptadecanoyl-CoA were used as internal standards. The limit of detection with this method is 0.005 µM for CoA conjugates. […]

primary rat hepatocytes = conditions: TBBA treatment; cited from earlier work
primates = conditions: cited from earlier work
[1] = system: reproductive organs of male rats; conditions: rat, in vivo; cited from earlier work
[2] = system: reproductive organs of male dogs; conditions: dog, in vivo; cited from earlier work
mice = conditions: mouse, in vivo; cited from earlier work
guinea-pigs = conditions: guinea pig, in vivo; cited from earlier work
[3] = male, Sprague-Dawley, rat, 0.5 h, 50 µM
[4] = male, Sprague-Dawley, rat, 4 h, 50 µM
[5] = male, Sprague-Dawley, rat, 22 h, 50 µM

## CC(C)CC1=CCC(CCC=O)CC1 (stereo not drawn) [3-(4-isobutylcyclohex-3-en-1-yl)propanal]
Plated rat hepatocytes; male, Sprague-Dawley, rat, 50 µM
  main conjugate detected: 4-isobutylbenzoic acid-CoA
Plated rat hepatocytes; [3]
  CoA Conjugates Detected in Plated Rat Hepatocytes (Total Amount): 74 % of TBBA-CoA ex BMHCA
  CoA conjugate detected: 3-(4-isobutylcyclohex-3-en-1-yl)propanoic acid-CoA: 19 % of TBBA-CoA ex BMHCA
  CoA conjugate detected: 3-(4-isobutylcyclohexa-1,3-dien-1-yl)propanoic acid-CoA: 12 % of TBBA-CoA ex BMHCA
  CoA conjugate detected: 4-isobutylcyclohex-3-ene-1-carboxylic acid-CoA: 23 % of TBBA-CoA ex BMHCA
  CoA conjugate detected: 4-isobutylcyclohexa-1,3-diene-1-carboxylic acid-CoA: 8 % of TBBA-CoA ex BMHCA
Plated rat hepatocytes; [4]
  CoA Conjugates Detected in Plated Rat Hepatocytes (Total Amount): 45 % of TBBA-CoA ex BMHCA
  CoA conjugate detected: 3-(4-isobutylcyclohex-3-en-1-yl)propanoic acid-CoA: 2 % of TBBA-CoA ex BMHCA
  CoA conjugate detected: 3-(4-isobutylcyclohexa-1,3-dien-1-yl)propanoic acid-CoA: 2 % of TBBA-CoA ex BMHCA
  CoA conjugate detected: 4-isobutylcyclohex-3-ene-1-carboxylic acid-CoA: 10 % of TBBA-CoA ex BMHCA
  CoA conjugate detected: 4-isobutylcyclohexa-1,3-diene-1-carboxylic acid-CoA: 8 % of TBBA-CoA ex BMHCA
Plated rat hepatocytes; [5]
  CoA Conjugates Detected in Plated Rat Hepatocytes (Total Amount): 29 % of TBBA-CoA ex BMHCA
  CoA conjugate detected: 3-(4-isobutylcyclohex-3-en-1-yl)propanoic acid-CoA: 3 % of TBBA-CoA ex BMHCA
  CoA conjugate detected: 4-isobutylcyclohex-3-ene-1-carboxylic acid-CoA: 5 % of TBBA-CoA ex BMHCA

## CC1=C(CCC=O)CCC(C(C)C)C1 (stereo not drawn) [3-(4-isopropyl-2-methylcyclo-hex-1-en-1-yl)propanal]
Plated rat hepatocytes
  accumulation of CoA-conjugates (in words): significantly reduced accumulation
Plated rat hepatocytes; [3]
  CoA Conjugates Detected in Plated Rat Hepatocytes (Total Amount): 62 % of TBBA-CoA ex BMHCA
  CoA conjugate detected: 3-(4-isopropyl-2-methylcyclohex-1-en-1-yl)propanoic acid-CoA: 22 % of TBBA-CoA ex BMHCA
  CoA conjugate detected: 3-(4-isopropyl-2-methylcyclohexa-1,5-dien-1-yl)propanoic acid-CoA: 34 % of TBBA-CoA ex BMHCA
  CoA conjugate detected: 3-(4-isopropyl-2-methylphenyl)propanoic acid-CoA: 2 % of TBBA-CoA ex BMHCA
  CoA conjugate detected: 4-isopropyl-2-methylcyclohex-1-ene-1-carboxylic acid-CoA: 4 % of TBBA-CoA ex BMHCA
Plated rat hepatocytes; [4]
  CoA Conjugates Detected in Plated Rat Hepatocytes (Total Amount): 28 % of TBBA-CoA ex BMHCA
  CoA conjugate detected: 3-(4-isopropyl-2-methylcyclohex-1-en-1-yl)propanoic acid-CoA: 10 % of TBBA-CoA ex BMHCA
  CoA conjugate detected: 3-(4-isopropyl-2-methylcyclohexa-1,5-dien-1-yl)propanoic acid-CoA: 13 % of TBBA-CoA ex BMHCA
  CoA conjugate detected: 3-(4-isopropyl-2-methylphenyl)propanoic acid-CoA: 2 % of TBBA-CoA ex BMHCA
  CoA conjugate detected: 4-isopropyl-2-methylcyclohex-1-ene-1-carboxylic acid-CoA: 3 % of TBBA-CoA ex BMHCA
Plated rat hepatocytes; [5]
  CoA Conjugates Detected in Plated Rat Hepatocytes (Total Amount): 9 % of TBBA-CoA ex BMHCA
  CoA conjugate detected: 3-(4-isopropyl-2-methylcyclohex-1-en-1-yl)propanoic acid-CoA: 3 % of TBBA-CoA ex BMHCA
  CoA conjugate detected: 3-(4-isopropyl-2-methylcyclohexa-1,5-dien-1-yl)propanoic acid-CoA: 3 % of TBBA-CoA ex BMHCA
  CoA conjugate detected: 4-isopropyl-2-methylcyclohex-1-ene-1-carboxylic acid-CoA: 3 % of TBBA-CoA ex BMHCA
GC odor threshold
  GC Odor Threshold: 0.022 ng/L

## CC(C)(C)c1ccc(C(=O)O)cc1 [TBBA, 4-(tert-butyl)benzoic acid]
Plated rat hepatocytes; male, Sprague-Dawley, rat
  p-tert-butyl-benzoyl-CoA accumulates to stable levels within: 0.5 to 4 h
Primary rat hepatocytes
  CoA, acetyl-CoA and citrate levels: decreased

## CC(C)C1CC=C(CCC=O)CC1 (stereo not drawn) [3-(4-isopropylcyclohex-1-en-1-yl)propanal]
Plated rat hepatocytes
  accumulation of CoA-conjugates (in words): substantial accumulation
Plated rat hepatocytes; [3]
  CoA Conjugates Detected in Plated Rat Hepatocytes (Total Amount): 124 % of TBBA-CoA ex BMHCA
  CoA conjugate detected: 3-(4-isopropylcyclohex-1-en-1-yl)propanoic acid-CoA: 53 % of TBBA-CoA ex BMHCA
  CoA conjugate detected: 3-(4-isopropylcyclohexa-1 ,5-dien-1-yl)propanoic acid-CoA: 36 % of TBBA-CoA ex BMHCA
  CoA conjugate detected: 4-isopropylcyclohex-1-ene-1-carboxylic acid-CoA: 23 % of TBBA-CoA ex BMHCA
  CoA conjugate detected: 4-isopropylcyclohexane-1-carboxylic acid-CoA: 12 % of TBBA-CoA ex BMHCA
Plated rat hepatocytes; [4]
  CoA Conjugates Detected in Plated Rat Hepatocytes (Total Amount): 79 % of TBBA-CoA ex BMHCA
  CoA conjugate detected: 3-(4-isopropylcyclohex-1-en-1-yl)propanoic acid-CoA: 26 % of TBBA-CoA ex BMHCA
  CoA conjugate detected: 3-(4-isopropylcyclohexa-1 ,5-dien-1-yl)propanoic acid-CoA: 17 % of TBBA-CoA ex BMHCA
  CoA conjugate detected: 4-isopropylcyclohex-1-ene-1-carboxylic acid-CoA: 26 % of TBBA-CoA ex BMHCA
  CoA conjugate detected: 4-isopropylcyclohexane-1-carboxylic acid-CoA: 10 % of TBBA-CoA ex BMHCA
Plated rat hepatocytes; [5]
  CoA Conjugates Detected in Plated Rat Hepatocytes (Total Amount): 31 % of TBBA-CoA ex BMHCA
  CoA conjugate detected: 4-isopropylcyclohex-1-ene-1-carboxylic acid-CoA: 24 % of TBBA-CoA ex BMHCA
  CoA conjugate detected: 4-isopropylcyclohexane-1-carboxylic acid-CoA: 7 % of TBBA-CoA ex BMHCA

## CC(C)CC1=CCC(CCC=O)C(C)C1 (stereo not drawn) [3-(4-isobutyl-6-methylcyclohex-3-en-1-yl)propanal]
Plated rat hepatocytes; [3]
  CoA Conjugates Detected in Plated Rat Hepatocytes (Total Amount): 86 % of TBBA-CoA ex BMHCA
  CoA conjugate detected: 3-(4-isobutyl-2-methylcyclohexyl)propanoic acid-CoA: 3 % of TBBA-CoA ex BMHCA
  CoA conjugate detected: 3-(4-isobutyl-6-methylcyclohex-3-en-1-yl)propanoic acid: 58 % of TBBA-CoA ex BMHCA
  CoA conjugate detected: 3-(4-isobutyl-6-methylcyclohexa-1,3-dien-1-yl)propanoic acid-CoA: 21 % of TBBA-CoA ex BMHCA
  CoA conjugate detected: 4-isobutyl-6-methylcyclohex-3-ene-1-carboxylic acid-CoA: 4 % of TBBA-CoA ex BMHCA
Plated rat hepatocytes; [4]
  CoA Conjugates Detected in Plated Rat Hepatocytes (Total Amount): 31 % of TBBA-CoA ex BMHCA
  CoA conjugate detected: 3-(4-isobutyl-6-methylcyclohex-3-en-1-yl)propanoic acid: 19 % of TBBA-CoA ex BMHCA
  CoA conjugate detected: 3-(4-isobutyl-6-methylcyclohexa-1,3-dien-1-yl)propanoic acid-CoA: 8 % of TBBA-CoA ex BMHCA
  CoA conjugate detected: 4-isobutyl-6-methylcyclohex-3-ene-1-carboxylic acid-CoA: 4 % of TBBA-CoA ex BMHCA

## CC(C=O)Cc1ccc(C(C)(C)C)cc1 (stereo not drawn) [BMHCA, 3-(4-tert-butylphenyl)-2-methylpropanal]
Plated rat hepatocytes; [3]
  CoA Conjugates Detected in Plated Rat Hepatocytes (Total Amount): 100 % of TBBA-CoA ex BMHCA
Plated rat hepatocytes; [4]
  CoA Conjugates Detected in Plated Rat Hepatocytes (Total Amount): 100 % of TBBA-CoA ex BMHCA
Plated rat hepatocytes; [5]
  CoA Conjugates Detected in Plated Rat Hepatocytes (Total Amount): 100 % of TBBA-CoA ex BMHCA
primates
  toxic effects: No effects
[1]
  toxic effects on the reproductive organs: toxic effects
[2]
  toxic effects on the reproductive organs: toxic effects
mice
  toxic effects: No effects
guinea-pigs
  toxic effects: No effects
